{
  "source": "patent US20120190751A1",
  "about": "“COMPOUNDS FOR TREATMENTS OF INFLAMMATION” (ANA-MAR AB, priority 2009, published 2012)",
  "key": {"[1]": {"target": "5-HT1D receptor (Homo sapiens, UniProt P28221)", "sequence (P28221 whole entry)": "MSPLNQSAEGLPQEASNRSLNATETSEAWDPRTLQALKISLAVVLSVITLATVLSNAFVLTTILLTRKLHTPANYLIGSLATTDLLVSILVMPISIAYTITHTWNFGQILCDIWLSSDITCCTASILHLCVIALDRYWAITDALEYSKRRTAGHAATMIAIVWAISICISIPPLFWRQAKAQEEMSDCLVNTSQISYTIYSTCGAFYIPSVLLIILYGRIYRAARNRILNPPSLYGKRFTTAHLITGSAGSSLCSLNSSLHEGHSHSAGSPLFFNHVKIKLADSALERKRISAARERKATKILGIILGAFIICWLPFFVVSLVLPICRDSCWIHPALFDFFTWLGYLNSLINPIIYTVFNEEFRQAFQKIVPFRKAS", "experiment": "Radio-ligand binding assay 5-HT1D", "settings": "10 μM compound; [3H]-5-CT 2 nM; human cortex", "protocol": "(§1) Determination of binding affinities for various 5-HT receptors was performed by radio-ligand binding assays. Briefly, tissue or cells expressing the receptor of interest were suspended in incubation buffer and radio-ligands and 10 μM N-(2-chloro-3,4-dimethoxybenzylidene-amino)guanidine were added. After incubation, separation of bound and free radio-ligand was done by multiple washings with buffer.\n(§2) The results were presented as the percent inhibition of specific binding. The IC50 values were determined by a non-linear least square regression analysis using MathIQ™ (ID Business Solution Ltd., UK). The inhibition constants (Ki) were calculated using the equation of Cheng and Prusoff (Cheng Y, Prusoff W H, Biochem. Pharmacol. 22:3099-3108, 1973) using the observed IC50 of the tested compound, the concentration of radioligand employed in the assay and the historical values for the KD of the ligand."}, "[2]": {"target": "5HT2B receptor (Homo sapiens, UniProt P41595)", "sequence (P41595 whole entry)": "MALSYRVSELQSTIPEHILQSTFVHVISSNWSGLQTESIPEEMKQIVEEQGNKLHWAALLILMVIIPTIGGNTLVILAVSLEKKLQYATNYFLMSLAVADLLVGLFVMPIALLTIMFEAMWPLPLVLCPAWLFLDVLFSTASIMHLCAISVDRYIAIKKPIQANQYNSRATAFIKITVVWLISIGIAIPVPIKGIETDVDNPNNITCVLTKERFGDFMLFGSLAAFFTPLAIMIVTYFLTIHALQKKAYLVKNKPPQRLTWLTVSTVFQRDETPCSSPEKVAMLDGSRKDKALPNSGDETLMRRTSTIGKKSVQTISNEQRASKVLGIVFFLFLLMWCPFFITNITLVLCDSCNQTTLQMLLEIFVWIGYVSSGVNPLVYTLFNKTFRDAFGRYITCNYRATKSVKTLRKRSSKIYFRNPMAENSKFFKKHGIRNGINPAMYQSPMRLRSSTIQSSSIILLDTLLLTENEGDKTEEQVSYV", "experiment": "Radio-ligand binding assay 5-HT2B", "protocol": "as §1, §2"}, "[3]": {"target": "T1, 5-HT4 receptor (Cavia porcellus, UniProt O70528)", "T1 construct": "tissue or cells expressing the receptor of interest were suspended in incubation buffer; from tissue; host or cells: guinea-pig tissue (which tissue is not visible)", "T1 sequence (O70528 whole entry)": "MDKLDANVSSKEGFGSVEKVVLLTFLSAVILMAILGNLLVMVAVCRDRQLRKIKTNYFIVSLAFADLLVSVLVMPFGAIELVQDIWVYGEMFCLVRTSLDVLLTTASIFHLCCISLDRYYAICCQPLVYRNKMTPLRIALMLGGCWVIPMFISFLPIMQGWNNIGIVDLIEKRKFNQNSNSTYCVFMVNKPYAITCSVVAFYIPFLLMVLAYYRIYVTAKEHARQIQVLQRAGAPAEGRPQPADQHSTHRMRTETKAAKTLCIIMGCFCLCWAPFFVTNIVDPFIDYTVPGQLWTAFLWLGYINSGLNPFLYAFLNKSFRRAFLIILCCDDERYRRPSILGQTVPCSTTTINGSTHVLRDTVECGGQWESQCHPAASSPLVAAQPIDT", "experiment": "Radio-ligand binding assay 5-HT4", "design": "species or system Guinea pig", "protocol": "as §1, §2"}, "[4]": {"target": "5-HT5A receptor (Homo sapiens, UniProt P47898)", "sequence (P47898 whole entry)": "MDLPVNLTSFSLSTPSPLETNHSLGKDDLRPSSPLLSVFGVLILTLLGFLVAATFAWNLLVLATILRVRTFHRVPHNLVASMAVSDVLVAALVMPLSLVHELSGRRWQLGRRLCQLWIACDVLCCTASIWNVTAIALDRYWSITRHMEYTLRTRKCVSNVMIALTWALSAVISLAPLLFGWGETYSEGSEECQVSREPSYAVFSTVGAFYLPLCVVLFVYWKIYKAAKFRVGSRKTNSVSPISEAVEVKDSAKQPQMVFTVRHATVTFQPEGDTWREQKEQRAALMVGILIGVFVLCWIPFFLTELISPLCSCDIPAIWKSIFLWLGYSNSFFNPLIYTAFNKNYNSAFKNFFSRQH", "experiment": "Radio-ligand binding assay 5-HT5A", "settings": "10 μM compound; [3H] LSD 1 nM; human rec. HEK293 cells", "protocol": "as §1, §2"}, "[5]": {"target": "5-HT6 receptor (Homo sapiens, UniProt P50406)", "sequence (P50406 whole entry)": "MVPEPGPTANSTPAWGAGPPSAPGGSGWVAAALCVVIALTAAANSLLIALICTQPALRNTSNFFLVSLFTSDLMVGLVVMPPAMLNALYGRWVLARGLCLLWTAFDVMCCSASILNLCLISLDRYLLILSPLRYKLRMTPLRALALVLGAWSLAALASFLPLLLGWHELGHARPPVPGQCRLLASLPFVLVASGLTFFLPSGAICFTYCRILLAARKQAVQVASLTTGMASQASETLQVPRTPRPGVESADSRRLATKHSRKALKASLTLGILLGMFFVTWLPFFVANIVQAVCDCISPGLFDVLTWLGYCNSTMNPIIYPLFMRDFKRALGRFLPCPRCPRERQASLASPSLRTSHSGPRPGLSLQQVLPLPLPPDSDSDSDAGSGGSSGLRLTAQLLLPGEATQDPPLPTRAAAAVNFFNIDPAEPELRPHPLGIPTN", "experiment": "Radio-ligand binding assay 5-HT6", "settings": "10 μM compound; [3H] LSD 1.5 nM; human rec. HEK293 cells", "protocol": "as §1, §2"}, "[6]": {"target": "T2, 5-HT2B receptor (Rattus norvegicus, UniProt P30994)", "T2 construct": "induces contraction in the rat stomach fundus from Wistar rats; from tissue; host or cells: rat (Wistar) stomach fundus", "T2 sequence (P30994 whole entry)": "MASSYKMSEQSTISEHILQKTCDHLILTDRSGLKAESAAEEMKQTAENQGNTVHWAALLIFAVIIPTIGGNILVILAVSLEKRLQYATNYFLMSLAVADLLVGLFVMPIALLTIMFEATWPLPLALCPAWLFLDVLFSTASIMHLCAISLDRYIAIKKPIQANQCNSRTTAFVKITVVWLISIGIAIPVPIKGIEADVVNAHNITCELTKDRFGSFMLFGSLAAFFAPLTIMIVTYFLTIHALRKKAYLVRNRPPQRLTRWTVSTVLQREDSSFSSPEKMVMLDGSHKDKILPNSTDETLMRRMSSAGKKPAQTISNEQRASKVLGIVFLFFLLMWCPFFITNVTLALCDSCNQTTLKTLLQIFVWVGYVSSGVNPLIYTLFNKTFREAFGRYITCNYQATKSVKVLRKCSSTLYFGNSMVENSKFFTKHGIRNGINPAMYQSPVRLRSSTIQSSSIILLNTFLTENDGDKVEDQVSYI", "experiment": "5-HT2B tissue assay (functionality, rat stomach fundus contraction)", "type": "cell-based", "settings": "FIG. 2, read-out: IC50, antagonistic effect on 5-HT2B", "protocol": "(Cohen M L, Fludzinski L A. Contractile serotonergic receptor in rat stomach fundus. J. Pharmacol. Exp. Ther. (1987 October); 243(1):264-269.)\n(§3) FIG. 2. Antagonistic effect of N-(2-chloro-3,4-dimethoxybenzylideneamino)guanidine on 5-HT2B and 5-HT2C receptors. The functionality of the compound was evaluated with the 5-HT2B tissue assay and the 5-HT2C GTPγS binding assay methods.\n(§4) N-(2-chloro-3,4-dimethoxybenzylideneamino)guanidine was further tested for functionality against 5-HT2B (Cohen et al. (1987), J. Pharmacol. Exp. Ther. 243:264-269), 5-HT2C (Adlersber M, et al. (2000), J. Neurosci. Res. 61(6):674-685; Cussac D. et al. (2002), Mol. Pharmacol. 62(3):578-589) and 5-HT4 (Reeves et al. (1991), Br. J. Pharmacol. 103:1067-1072)."}, "[7]": {"target": "T3, 5-HT2C receptor (Homo sapiens, UniProt P28335)", "T3 sequence (P28335 33-458)": "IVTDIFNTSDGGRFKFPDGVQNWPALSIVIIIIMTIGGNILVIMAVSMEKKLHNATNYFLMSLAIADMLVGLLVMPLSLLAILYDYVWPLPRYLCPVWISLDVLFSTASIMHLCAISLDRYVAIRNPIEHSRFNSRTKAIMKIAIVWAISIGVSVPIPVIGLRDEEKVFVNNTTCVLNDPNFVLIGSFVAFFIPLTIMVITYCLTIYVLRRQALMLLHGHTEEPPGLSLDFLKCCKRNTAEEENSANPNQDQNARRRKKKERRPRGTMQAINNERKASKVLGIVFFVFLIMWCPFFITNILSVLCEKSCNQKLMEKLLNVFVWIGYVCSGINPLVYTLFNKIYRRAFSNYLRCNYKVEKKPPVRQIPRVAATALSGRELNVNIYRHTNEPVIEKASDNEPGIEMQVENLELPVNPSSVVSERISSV", "experiment": "5-HT2C GTPγS binding assay (functionality)", "type": "biochemical", "settings": "FIG. 2, read-out: IC50, antagonistic effect on 5-HT2C", "protocol": "as §3, §4"}, "[8]": {"target": "5-HT4 receptor (Rattus norvegicus, UniProt Q62758)", "sequence (Q62758 whole entry)": "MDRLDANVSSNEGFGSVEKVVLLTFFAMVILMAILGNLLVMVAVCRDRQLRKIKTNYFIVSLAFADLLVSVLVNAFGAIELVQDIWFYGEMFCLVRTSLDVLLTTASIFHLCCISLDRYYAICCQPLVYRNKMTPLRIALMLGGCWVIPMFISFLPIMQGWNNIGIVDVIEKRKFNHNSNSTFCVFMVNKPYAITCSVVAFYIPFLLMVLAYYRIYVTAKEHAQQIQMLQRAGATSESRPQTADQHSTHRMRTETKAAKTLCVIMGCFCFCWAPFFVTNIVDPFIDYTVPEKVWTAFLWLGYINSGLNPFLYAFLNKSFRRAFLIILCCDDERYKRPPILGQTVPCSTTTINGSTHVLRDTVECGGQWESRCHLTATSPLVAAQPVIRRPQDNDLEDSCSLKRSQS", "experiment": "5-HT4 functionality test", "settings": "at 100 μM", "description": "as §4"}, "[9]": {"tested_on": "antigen-induced arthritis", "experiment": "Antigen-induced arthritis (AIA) in the rat, knee-joint swelling", "type": "in vivo", "description": "Antigen-Induced Arthritis (AIA) is a Well-Documented Animal Experimental Model of human arthritic disease (Dumonde, D. C. and Glynn, L. E. (1962), Br. J. Exp. Pathol. 43:373-383). In this model, inflammation is induced by immunization followed by an intra-articular (knee-joint) challenge with the antigen. This causes an increase in knee diameter due to the formation of a pannus, i.e. hyperproliferative synovial tissue, which spreads over the articular cartilage into the bone, leading to erosion and destruction of the joint tissue (Carpenter, T. A. et al. (1994), Skeletal Radiol. 23:429-437).\nAIA was applied for a short-term in vivo evaluation of our test compounds, with treatment during 4 days.\nFemale Dark Agouti rats were sensitized subcutaneously at the tail root with 1 mg mBSA (Sigma A1009) dissolved in 50 μl saline and emulsified in 50 μl Freund's complete adjuvant (Sigma F5881). Eleven days later the rats were challenged (unilateral) with an intra-articular (i.a.) injection of 75 μg mBSA dissolved in 50 μl saline. The procedures were carried out under a brief Isoflurane anaesthesia. Animals were treated once or twice daily with oral administration of N-(2-chloro-3,4-dimethoxybenzylideneamino)guanidine in saline. […] The knee-joint swelling was measured daily with an odimeter/calliper; the body weight was recorded before arthritis induction and at the end of the experiment. […]"}, "[10]": {"settings": "10 different concentrations, Cheng-Prusoff, FIG. 1"}},
  "data": [
    {"smiles": "COc1ccc(C=NNC(=N)N)c(Cl)c1OC", "note": "[N-(2-chloro-3,4-dimethoxybenzylideneamino)guanidine]", "values": [
      {"measurement": "inhibition at 10 µM", "setting": "[1]", "result": -5.7, "unit": "%"},
      {"measurement": "inhibition at 10 µM", "setting": "[2]; 10 μM compound, [3H] LSD 1.2 nM, human rec. CHO.K1 cells", "result": 107, "unit": "%"},
      {"measurement": "Ki", "setting": "[2]; [10]", "result": 0.263, "unit": "µM"},
      {"measurement": "inhibition at 10 µM", "setting": "[3]; 10 μM compound, [3H] GR113808 0.2 nM, guinea pig striata", "result": 99, "unit": "%"},
      {"measurement": "Ki", "setting": "[3]; [10]", "result": 0.276, "unit": "µM"},
      {"measurement": "inhibition at 10 µM", "setting": "[4]", "result": 54, "unit": "%"},
      {"measurement": "inhibition at 10 µM", "setting": "[5]", "result": 2.6, "unit": "%"},
      {"measurement": "IC50", "setting": "[6]", "result": 61.7, "unit": "µM"},
      {"measurement": "IC50", "setting": "[7]", "result": 16.5, "unit": "µM"},
      {"measurement": "effect on 5-HT4 (functionality)", "setting": "[8]", "result": "no significant effect"},
      {"measurement": "effect in AIA at administration one day after disease induction", "setting": "[9]; administration started one day after disease induction", "result": "therapeutic effect"},
      {"measurement": "knee-joint swelling in AIA", "setting": "[9]; oral, 1-10 mg/kg once or twice daily for 4 days from day of challenge, FIG. 5", "result": "reproducibly reduce joint swelling"}
    ]}
  ]
}
